Laboratory results taken from the supplement of paper PMC10307832.

Experiments:
Experiment in all cases: relative viability (nuclei count vs DMSO), 5 days (fraction); higher = more cells survive
[1] = compound: CC1=CC(=CC=C1)NC2=NC(=CS2)C3=CC=NC=C3 + CC(=O)Nc1cccc(-n2c(=O)n(C3CC3)c(=O)c3c(Nc4ccc(I)cc4F)n(C)c(=O)c(C)c32)c1 [Trametinib] (partner 0.02 µM)
Method in brief: (§1)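 One day after seeding in 1536-well plates, lung cancer cell lines were dosed by pin tool. Dosing was either single-drug or a fixed anchor-drug dose plus five library-drug doses (not always all listed) in √10 steps. After 5 days, nuclei were stained in one fix-and-stain step and counted on 4× images, and relative viability is the nuclei count of treated wells over that of vehicle wells, given as the median of duplicate plates.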

[2] = compound: CC1=CC(=CC=C1)NC2=NC(=CS2)C3=CC=NC=C3 + C[C@@H](Oc1cc(-c2cnn(C3CCNCC3)c2)cnc1N)c1c(Cl)ccc(F)c1Cl [Crizotinib] (partner 1 µM)
Method in brief: as §1

Masitinib + Bortezomib = compound: Cc1ccc(NC(=O)c2ccc(CN3CCN(C)CC3)cc2)cc1Nc1nc(-c2cccnc2)cs1 [Masitinib] + CC(C)C[C@H](NC(=O)[C@H](Cc1ccccc1)NC(=O)c1cnccn1)B(O)O [Bortezomib] (partner 0.002 µM)
Method in brief: as §1

Masitinib + Pemetrexed = compound: Cc1ccc(NC(=O)c2ccc(CN3CCN(C)CC3)cc2)cc1Nc1nc(-c2cccnc2)cs1 [Masitinib] + Nc1nc2[nH]cc(CCc3ccc(C(=O)N[C@@H](CCC(=O)O)C(=O)O)cc3)c2c(=O)[nH]1 [Pemetrexed] (partner 0.2 µM)
Method in brief: as §1

## UMC-11
[1]; first compound 0.08 µM
  relative viability: 0.555
[1]; first compound 0.253 µM
  relative viability: 0.737
[1]; first compound 0.8 µM
  relative viability: 0.731
[1]; first compound 2.53 µM
  relative viability: 0.768
[1]; first compound 8 µM
  relative viability: 0.764
[2]; first compound 0.08 µM
  relative viability: 0.602
[2]; first compound 0.253 µM
  relative viability: 0.582
[2]; first compound 0.8 µM
  relative viability: 0.544
[2]; first compound 2.53 µM
  relative viability: 0.579
[2]; first compound 8 µM
  relative viability: 0.72
Masitinib + Bortezomib; first compound 0.01 µM
  relative viability: 0.793
Masitinib + Bortezomib; first compound 0.03162 µM
  relative viability: 0.743
Masitinib + Bortezomib; first compound 0.1 µM
  relative viability: 0.79
Masitinib + Bortezomib; first compound 0.3162 µM
  relative viability: 1.03
Masitinib + Bortezomib; first compound 1 µM
  relative viability: 0.714
Masitinib + Pemetrexed; first compound 0.01 µM
  relative viability: 0.755
Masitinib + Pemetrexed; first compound 0.03162 µM
  relative viability: 0.751
Masitinib + Pemetrexed; first compound 0.1 µM
  relative viability: 0.783
Masitinib + Pemetrexed; first compound 0.3162 µM
  relative viability: 0.813
Masitinib + Pemetrexed; first compound 1 µM
  relative viability: 0.882
